The source of these data is US7837757B2, “Enhanced abscisic acid and fertilizer performance” (Valent BioSciences Corporation, priority 2007, dated 2010).

Where “and” joins values, the source holds several entries; their conditions need not be identical. Identical values can stand only once. Counter-ions that a name gives are not always drawn.

This assay concerns tomato leaf transpiration. In words: tomato leaf transpiration inhibition (porometer, normalized to water-sprayed plants). In kind it is in vivo, Tomato (variety: Rutgers).

As for `CC1=CC(=O)CC(C)(C)[C@@]1(O)/C=C/C(C)=C\C(=O)O` [ABA ammonium salt, Ammonium Salt of (S)-(+)-Abscisic Acid], under “in vivo”, the “Transpiration rate (% of control)” value was 57 % of control and 67 % of control and 78 % of control and 76 % of control and 88 % of control; the “Transpiration rate (% of control), Average” value was 68 % of control and 81 % of control.
On to `[Ca+2].[Cl-].[Cl-]` [CaCl2, calcium chloride], for which, under “in vivo”, the “Transpiration rate (% of control)” value is 97 % of control and 101 % of control and 98 % of control; the “effect on tomato leaf transpiration (in words)” value is reported as “did not affect tomato leaf transpiration”.
As for `NC(N)=O` [Urea, urea], the “Transpiration rate (% of control)” value is on record as 103 % of control (1 mM urea alone, foliar, 1 day after treatment); 98 % of control (1 mM urea alone, foliar, 2 days after treatment); 98 % of control (1 mM urea alone, foliar, 3 days after treatment); 100 % of control (1 mM urea alone, foliar, 4 days after treatment); 101 % of control (10 mM urea alone, foliar, 1 day after treatment); 103 % of control (10 mM urea alone, foliar, 2 days after treatment). The “Transpiration rate (% of control)” value is, setting by setting: (10 mM urea alone, foliar, 3 days after treatment) 106 % of control; (10 mM urea alone, foliar, 4 days after treatment) 101 % of control; (100 mM urea alone, foliar, 1 day after treatment) 102 % of control; (100 mM urea alone, foliar, 2 days after treatment) 102 % of control; (100 mM urea alone, foliar, 3 days after treatment) 107 % of control; (100 mM urea alone, foliar, 4 days after treatment) 102 % of control. Further, the “effect on tomato leaf transpiration (in words)” value (fertilizer or salt alone at 1, 10 or 100 mM, foliar) is on record as “did not reduce tomato leaf transpiration”.
In the case of “(S)-5-(1-hydroxy-2,6,6,-trimethyl-4-oxo-2-cyclohexen-1-yl)-3-methyl-(2Z,4E)-pentadienoic acid [ABA, reference compound]”, where the note is “in vivo”, the “Transpiration rate (% of control), Average” value is 69 % of control and 78 % of control.
